Source: PubChem BioAssay AID248 (DTP/NCI, 2004)
“And” between values parts separate entries of the source, which are not always exact repeats. Identical values can stand only once. Inconclusive results and toxic doses are left out.

System: L1210 leukemia ip in BDF1 mice, survival T/C
Test: NCI In Vivo Anticancer Drug Screen. Data for tumor model L1210 Leukemia (intraperitoneal) in B6D2F1 (BDF1) mice
Conditions: higher = longer survival
Summary of the method: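 Tumor was transplanted into mice, which were then dosed with test compound or vehicle alone. Survival was recorded for each group, and the treated figure was expressed relative to the control figure.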

[1] = endpoint: mean survival time, dose: 100.0 mg/kg/injection, schedule: Q04DX002 (ip), vehicle: saline with Tween-80
[2] = endpoint: mean survival time, dose: 100.0 mg/kg/injection, schedule: Q04DX003 (ip), vehicle: saline
[3] = endpoint: mean survival time, dose: 200.0 mg/kg/injection, schedule: Q04DX002 (ip), vehicle: saline with Tween-80
[4] = endpoint: mean survival time, dose: 200.0 mg/kg/injection, schedule: Q04DX003 (ip), vehicle: saline
[5] = endpoint: mean survival time, dose: 50.0 mg/kg/injection, schedule: Q01DX001 (ip), vehicle: saline
[6] = endpoint: mean survival time, dose: 100.0 mg/kg/injection, schedule: Q01DX001 (ip), vehicle: saline
[7] = endpoint: mean survival time, dose: 200.0 mg/kg/injection, schedule: Q01DX001 (ip), vehicle: saline
[8] = endpoint: mean survival time, dose: 400.0 mg/kg/injection, schedule: Q01DX001 (ip), vehicle: saline

COC(=O)N1c2ccccc2C=CC1C#N (stereo not given)
T/C (endpoint: mean survival time, dose: 44.0 mg/kg/injection, schedule: Q04DX002 (ip), vehicle: saline with Tween-80): 151 % of control | T/C (endpoint: mean survival time, dose: 44.0 mg/kg/injection, schedule: Q04DX003 (ip), vehicle: saline with Tween-80): 109 % of control | T/C (endpoint: mean survival time, dose: 44.0 mg/kg/injection, schedule: Q04DX003 (ip), vehicle: saline): 108 % of control | T/C (endpoint: mean survival time, dose: 50.0 mg/kg/injection, schedule: Q01DX009 (ip), vehicle: saline with Tween-80): 104 % of control | T/C (endpoint: mean survival time, dose: 66.0 mg/kg/injection, schedule: Q04DX002 (ip), vehicle: saline with Tween-80): 173 % of control | T/C (endpoint: mean survival time, dose: 66.0 mg/kg/injection, schedule: Q04DX003 (ip), vehicle: saline with Tween-80): 103 % of control | T/C (endpoint: mean survival time, dose: 66.0 mg/kg/injection, schedule: Q04DX003 (ip), vehicle: saline): 101 % of control | T/C (endpoint: mean survival time, dose: 100.0 mg/kg/injection, schedule: Q01DX001 (ip), vehicle: saline with Tween-80): 106 % of control | T/C (endpoint: mean survival time, dose: 100.0 mg/kg/injection, schedule: Q01DX009 (ip), vehicle: saline with Tween-80): 96 % of control | T/C [1]: 189 % of control | T/C (endpoint: mean survival time, dose: 100.0 mg/kg/injection, schedule: Q04DX003 (ip), vehicle: saline with Tween-80): 109 % of control and 209 % of control | T/C [2]: 106 % of control | T/C (endpoint: mean survival time, dose: 200.0 mg/kg/injection, schedule: Q01DX001 (ip), vehicle: saline with Tween-80): 106 % of control | T/C (endpoint: mean survival time, dose: 200.0 mg/kg/injection, schedule: Q01DX009 (ip), vehicle: saline with Tween-80): 102 % of control | T/C [3]: 156 % of control | T/C [4]: 111 % of control | T/C (endpoint: mean survival time, dose: 400.0 mg/kg/injection, schedule: Q01DX001 (ip), vehicle: saline with Tween-80): 104 % of control | T/C (endpoint: mean survival time, dose: 400.0 mg/kg/injection, schedule: Q04DX003 (ip), vehicle: saline with Tween-80): 96 % of control

CCOP(=S)(S)OCC.[Pd]
T/C (endpoint: mean survival time, dose: 12.5 mg/kg/injection, schedule: Q01DX009 (ip), vehicle: other): 95 % of control | T/C (endpoint: mean survival time, dose: 25.0 mg/kg/injection, schedule: Q01DX009 (ip), vehicle: other): 95 % of control | T/C [5]: 96 % of control | T/C [6]: 100 % of control | T/C [7]: 100 % of control | T/C [8]: 100 % of control

CCCC[n+]1ccc(C(N)=O)cc1
T/C [2]: 100 % of control | T/C [4]: 100 % of control

CC[C@H]1CN2CCc3cc(OC)c(OC)cc3[C@@H]2C[C@@H]1C[C@H]1NCCc2c1[nH]c1ccc(OC)cc21
T/C (endpoint: mean survival time, dose: 0.5 mg/kg/injection, schedule: Q01DX009 (ip), vehicle: saline): 103 % of control | T/C (endpoint: mean survival time, dose: 1.0 mg/kg/injection, schedule: Q01DX009 (ip), vehicle: saline): 105 % of control | T/C (endpoint: mean survival time, dose: 2.0 mg/kg/injection, schedule: Q01DX005 (ip), vehicle: saline): 113 % of control | T/C (endpoint: mean survival time, dose: 2.0 mg/kg/injection, schedule: Q01DX009 (ip), vehicle: saline): 107 % of control | T/C (endpoint: mean survival time, dose: 2.0 mg/kg/injection, schedule: Q04DX003 (ip), vehicle: saline): 115 % of control | T/C (endpoint: mean survival time, dose: 4.0 mg/kg/injection, schedule: Q01DX005 (ip), vehicle: saline): 117 % of control | T/C (endpoint: mean survival time, dose: 4.0 mg/kg/injection, schedule: Q01DX009 (ip), vehicle: saline): 114 % of control | T/C (endpoint: mean survival time, dose: 4.0 mg/kg/injection, schedule: Q04DX003 (ip), vehicle: saline): 123 % of control | T/C (endpoint: mean survival time, dose: 8.0 mg/kg/injection, schedule: Q04DX003 (ip), vehicle: saline): 109 % of control | T/C (endpoint: mean survival time, dose: 16.0 mg/kg/injection, schedule: Q01DX009 (ip), vehicle: saline): 117 % of control | T/C (endpoint: mean survival time, dose: 16.0 mg/kg/injection, schedule: Q04DX003 (ip), vehicle: saline): 124 % of control | T/C (endpoint: mean survival time, dose: 32.0 mg/kg/injection, schedule: Q04DX003 (ip), vehicle: saline): 152 % of control | T/C (endpoint: median survival time, dose: 4.0 mg/kg/injection, schedule: Q04DX003 (ip), vehicle: saline + alcohol): 101 % of control | T/C (endpoint: median survival time, dose: 8.0 mg/kg/injection, schedule: Q04DX003 (ip), vehicle: saline + alcohol): 104 % of control | T/C (endpoint: median survival time, dose: 16.0 mg/kg/injection, schedule: Q04DX003 (ip), vehicle: saline + alcohol): 117 % of control | T/C (endpoint: median survival time, dose: 64.0 mg/kg/injection, schedule: Q04DX003 (ip), vehicle: saline + alcohol): 86 % of control

CCCCCC(C)(C)O
T/C [6]: 96 % of control | T/C (endpoint: mean survival time, dose: 100.0 mg/kg/injection, schedule: Q01DX009 (ip), vehicle: saline): 97 % of control | T/C (endpoint: mean survival time, dose: 187.0 mg/kg/injection, schedule: Q01DX001 (ip), vehicle: saline): 103 % of control | T/C [7]: 98 % of control | T/C (endpoint: mean survival time, dose: 200.0 mg/kg/injection, schedule: Q01DX009 (ip), vehicle: saline): 101 % of control | T/C (endpoint: mean survival time, dose: 267.0 mg/kg/injection, schedule: Q01DX001 (ip), vehicle: saline): 97 % of control | T/C (endpoint: mean survival time, dose: 600.0 mg/kg/injection, schedule: Q01DX001 (ip), vehicle: saline): 92 % of control

CC(=O)NCCCCC(N)C(=O)O (stereo not given)
T/C [5]: 104 % of control | T/C [6]: 93 % of control | T/C [7]: 93 % of control | T/C [8]: 95 % of control

CC1CNC(=O)C(=O)N1 (stereo not given)
T/C (endpoint: mean survival time, dose: 100.0 mg/kg/injection, schedule: Q04DX002 (ip), vehicle: saline): 98 % of control | T/C (endpoint: mean survival time, dose: 200.0 mg/kg/injection, schedule: Q04DX002 (ip), vehicle: saline): 102 % of control | T/C (endpoint: mean survival time, dose: 400.0 mg/kg/injection, schedule: Q04DX002 (ip), vehicle: saline): 94 % of control

O=C(CCl)NC1=C(Cl)C(=O)c2ccccc2C1=O
T/C (endpoint: mean survival time, dose: 75.0 mg/kg/injection, schedule: Q01DX001 (ip), vehicle: saline): 93 % of control

CCc1c(N)nc(N)nc1Nc1ccc(C)cc1
T/C (endpoint: mean survival time, dose: 6.0 mg/kg/injection, schedule: Q01DX Z (ip), vehicle: methylcellulose (MC)): 95 % of control | T/C (endpoint: mean survival time, dose: 12.0 mg/kg/injection, schedule: Q01DX Z (ip), vehicle: methylcellulose (MC)): 97 % of control

CCOC(=O)CCC(=O)OCC
T/C [6]: 95 % of control | T/C [7]: 95 % of control | T/C [8]: 93 % of control

CCOc1ccc(NC(=O)Nc2ccccc2OC)cc1
T/C (endpoint: mean survival time, dose: 100.0 mg/kg/injection, schedule: Q01DX009 (ip), vehicle: Klucel (hydroxypropylcellulose) (HPC)): 97 % of control | T/C (endpoint: mean survival time, dose: 100.0 mg/kg/injection, schedule: Q04DX003 (ip), vehicle: Klucel (hydroxypropylcellulose) (HPC)): 94 % of control | T/C (endpoint: mean survival time, dose: 200.0 mg/kg/injection, schedule: Q01DX009 (ip), vehicle: Klucel (hydroxypropylcellulose) (HPC)): 95 % of control | T/C (endpoint: mean survival time, dose: 200.0 mg/kg/injection, schedule: Q04DX003 (ip), vehicle: Klucel (hydroxypropylcellulose) (HPC)): 92 % of control | T/C (endpoint: mean survival time, dose: 400.0 mg/kg/injection, schedule: Q01DX009 (ip), vehicle: Klucel (hydroxypropylcellulose) (HPC)): 101 % of control | T/C (endpoint: mean survival time, dose: 400.0 mg/kg/injection, schedule: Q04DX003 (ip), vehicle: Klucel (hydroxypropylcellulose) (HPC)): 97 % of control

C1=CC2C1C1(Cc3ccccc3)N=NC2(Cc2ccccc2)C2C=CC21 (stereo not given)
T/C (endpoint: mean survival time, dose: 100.0 mg/kg/injection, schedule: Q04DX002 (ip), vehicle: Klucel (hydroxypropylcellulose) (HPC)): 97 % of control | T/C (endpoint: mean survival time, dose: 200.0 mg/kg/injection, schedule: Q04DX002 (ip), vehicle: Klucel (hydroxypropylcellulose) (HPC)): 94 % of control | T/C (endpoint: mean survival time, dose: 400.0 mg/kg/injection, schedule: Q04DX002 (ip), vehicle: Klucel (hydroxypropylcellulose) (HPC)): 87 % of control

C[C@]12CCC(=O)C=C1CC[C@@H]1[C@@H]2[C@@H](O)C[C@@]2(C)[C@H]1CC[C@]2(O)C(=O)CO
T/C (endpoint: mean survival time, dose: 12.0 mg/kg/injection, schedule: Q01DX015 (sc), vehicle: steriod suspending solution): 100 % of control | T/C (endpoint: mean survival time, dose: 25.0 mg/kg/injection, schedule: Q01DX015 (sc), vehicle: steriod suspending solution): 100 % of control | T/C (endpoint: mean survival time, dose: 50.0 mg/kg/injection, schedule: Q01DX015 (sc), vehicle: steriod suspending solution): 102 % of control | T/C (endpoint: mean survival time, dose: 100.0 mg/kg/injection, schedule: Q01DX001 (sc), vehicle: steriod suspending solution): 102 % of control | T/C (endpoint: mean survival time, dose: 100.0 mg/kg/injection, schedule: Q01DX Z (sc), vehicle: steriod suspending solution): 101 % of control | T/C (endpoint: mean survival time, dose: 200.0 mg/kg/injection, schedule: Q01DX001 (sc), vehicle: steriod suspending solution): 108 % of control | T/C (endpoint: mean survival time, dose: 200.0 mg/kg/injection, schedule: Q01DX Z (sc), vehicle: steriod suspending solution): 102 % of control | T/C (endpoint: mean survival time, dose: 400.0 mg/kg/injection, schedule: Q01DX001 (sc), vehicle: steriod suspending solution): 108 % of control | T/C (endpoint: mean survival time, dose: 400.0 mg/kg/injection, schedule: Q01DX Z (sc), vehicle: steriod suspending solution): 102 % of control | T/C (endpoint: mean survival time, dose: 800.0 mg/kg/injection, schedule: Q01DX Z (sc), vehicle: steriod suspending solution): 94 % of control | T/C (endpoint: mean survival time, dose: 1000.0 mg/kg/injection, schedule: Q01DX015 (sc), vehicle: steriod suspending solution): 104 % of control

CCC(Cl)(Cl)[N+](=O)[O-]
T/C [1]: 98 % of control | T/C [3]: 98 % of control | T/C (endpoint: mean survival time, dose: 400.0 mg/kg/injection, schedule: Q04DX002 (ip), vehicle: saline with Tween-80): 102 % of control
